# Data taken from patent US6355629B2, “Prodrugs with enhanced penetration into cells” (D-Pharm Ltd., priority 1993, dated 2002).
# Read-outs that look alike come from different tables or passages of the source.
# Key:
# [1] = tested on: lymphocytes from donor blood and from the blood of an asthmatic patient; assay: Intracellular free [Ca2+]i by flow cytometry with fluo-3/AM; assay type: cell-based, human; details: in either stimulated or untreated cells
# Procedure: Intracellular free [Ca^2+]i content was monitored by flow cytometry using the Ca^2+-sensitive dye fluo-3/AM (Molecular Probe Inc., OR)(Minta, Kao and Tsien, 1989, J. Biol. Chem. 264:8171-8178). Cells obtained from donor blood and those from the blood of an asthmatic patient were further washed twice in DMEM and resuspended to a concentration of 10^7 cells/ml. Fluo-3/AM (1 mM) was prepared in DMSO augmented with the nonionic surfactant Pluronic F-127 (Wyandotte Corp., Mich.). Aliquots of fluo-3/AM stock solution were added to cell suspensions in DMEM/HEPES at a final concentration of 3 μM (loading buffer). Loading was allowed to proceed for 30 min. at 37° C. and continued for 1 hour at 23° C. with gentle agitation. Cells were then adjusted to desired concentrations using fresh DMEM/HEPES, supplemented with 2% horse serum. Autofluorescence was eliminated by setting the threshold sensitivity above the levels obtained in absence of dye. Fluorescence intensity data was collected from 5000 single cells and values were expressed as arbitrary fluorescence units. Prodrug-1 (1 mM) was prepared in DMSO and added when appropriate at a final concentration of 3 μM to the cells for 5 min. prior to calcium treatment.
# Lymphocytes from donor blood and from the blood of an asthmatic patient were exposed to prodrug-1. […]
# [2] = tested on: rat model of permanent cerebral ischemia; assay: Bilateral permanent cerebral ischemia model (common carotid artery ligation); assay type: in vivo; details: rats, i.p. 0.001-0.1 mg/kg following artery ligation; p<0.01; FIG. 2
# Procedure: Bilateral ligation of the common carotid arteries is the simplest and most direct approach for inducing permanent partial ischemia. In the rats there is almost 64% mortality 24 h later. The causes of mortality are largely brain swelling (edema) and focal lesions (infarcts). Permanent partial global is achieved by isolation of the common carotid artery through an incision on the ventral surface of the neck. The salivary glands are moved laterally and the carotid sheath exposed. Both the vagus and sympathetic nerves are separated from the common carotid artery, which is then permanently ligated. Sprague-Dawley rats (250-300 g) were anesthetized with halothane or by intramuscular injection of 0.1 ml Ketamine (0.1 g/ml, Parke Davis UK) and 0.1 ml Rompun (2%, Bayer, FRG) per 300 g body weight. DP16 was administered intraperitoneally (i.p., 0.001-0.1 mg/kg) when appropriate following the artery ligation. Every experimental and control group included 14 male rats. Statistical analysis was performed according to t-test criteria.
# [3] = tested on: pilocarpine induced epileptic seizures; assay: Pilocarpine based model of experimental epilepsy; assay type: in vivo, rats
# Procedure: Acetylcholine, acetylcholinesterase inhibitors and acetylcholine analogues are effective epileptogenic agents when applied intracerebrally or systematically (see ref. in Leite et al., Neurosci. & Biobeh. Rev., 1990, 14:511-17). […] Systemic injections of the pilocarpine, a potent muscarinic cholinergic agonist, are capable of producing a sequence of behavioral alterations including stirring spells, facial automatisms and motor limbic seizures, that develop over 1-2 hours and build progressively into limbic status and following by general status epilepticus.
# Immediately following injection of pilocarpine, akinesia, ataxic lurching, facial automatism and […] dominated the animals' behavior. Further development of epileptic events is dose-dependent. Administration of pilocarpine in doses of 300-350 mg/kg causes appearance of limbic seizures with rearing, forelimb clonus, salivation, intense masticatory jaw movements and falling. Motor limbic seizures commenced after 20-30 min., recurred every 2-8 min and lead to status epilepticus. Increase of the dose of pilocarpine up-to 400mg/kg abolished limbic seizures and after 15-25 min of initial behavioral alterations causes fatal general tonic-clonic convulsions. We consider this dose as the LD100.
# [4] = tested on: metrazol induced seizures (myoclonic jerks); assay: Metrazol minimal seizures test; assay type: in vivo, BALB/c mice; details: 30 min before Metrazol s.c.
# Procedure: Testing of DP16 as a possible antiepileptic drug was performed on 3-4 week old male BALB/c mice (18-27 g). Animals were maintained on an adequate diet and allowed free access to food and water except briefly during the experimental period. Animals were separately housed for one hour in transparent plastic cages before treatment and during the experimental period. Drugs were dissolved in normal saline with injection volume adjusted to 0.01 ml/g of body weight. DP16 was administered i.p., in doses ranging from 0.1 to 300 μg/kg: (0.1 μg/kg: n=10, 5 μg/kg: n=10, 25 μg/kg: n=20, 75 μg/kg: n=20, 150 μg/kg: n=20, and 300 μg/kg: n=10 animals respectively). Control animals received injections i.p. of normal saline. DP16 or saline administration followed in 30 minutes by Metrazol ([…], s.c.). […] Absence or relative delay of myoclonic jerks (MJ) in the experimental group was considered as indication of possible antiepileptic activity. Data were subjected to chi-square analysis with the computer statistic package “StatViewII”,
# rat hearts = assay: Ex-vivo rat heart Low-flow-Reperfusion Langendorff model
# Source text: Low-flow Reperfusion Langendorff's heart (Meely and Rovetto, 1975, METHODS IN ENZYMOLOGY, v39:43-60) is an established ex vivo model of a human ischemic heart. A severe decrease in perfusion pressure (PP) below 20 mm Hg (low-flow period) causes sinus bradycardia culminating by stable AV block (“AVB”; 10 out of 11 hearts) frequently followed by ventricular arythmia. Restoration of perfusion pressure causes paroxysmal tachyarrhythmia followed by irreversable ventricular fibrillation (VF).
# The experiments were preformed ex vivo on 39 rat hearts. Heart electrical activity and perfusion pressure were stable following 15 min., each. Perfusion buffer was supplemented with DP16 (1.0 μg/l) following the stable AV block during low flow perfusion and during the Reperfusion period.
# The experimental protocol documented by FIG. 16 included periods of Normal Coronary Flow (FIG. 6, NF, panel 1) followed by Low-Flow (LF) and then by Normal flow-reperfusion (NF-Rp) (panels 2 and 3, respectively).
# The experiments were performed by addition of DP16 (0.5-500 μg/l) to the perfusion buffer after AV block establishment.
# [5] = tested on: isoproterenol induced myocardial damage; assay: Isoproterenol induced myocardial damage; assay type: in vivo, Sprague-Dawley rats
# Procedure: Administration of the potent β-adrenoreceptor agonist isoproterenol (ISO) is commonly accepted model of experimental myocardial pathology. The cardioprotective effect of DP16 was tested on 82 Sprague-Dawley female rats weighing 250-350 g. Myocardial damage was induced in rats by two consecutive injections of ISO ([…], s.c.). When appropriate, the injections of ISO were followed in 30 and 180 minutes by DP16 (0.01 μg/kg, i.p.). The effect of DP16 was estimated by ECG analysis and determination of serum glutamate-oxaloacetate transaminase (SGOT) and lactatdehydrogenase (LDH) activity. Mortality of control rats after ISO intervention was 17.1±5.9% (7 out of 41). […] Pathological signs on ECG were aggravated during the experimental period. […] Administration of DP16 decreased mortality in 2 cases (2 out of 30). […] Pathological displacement of the ST-segment was found only on 28 and 40% of ECG (in 24 and in 48 hours following ISO respectively).
# [6] = tested on: post-pilocarpine-seizure-cardiopathy (PSCP); assay: Post-pilocarpine-seizure cardiopathy (PSCP) model, in vivo ECG; design: species or system Sprague-Dawley rats
# Procedure: (§1) Adult (2-3 months) male Sprague-Dawley rats were used for all experiments. They were fed with standard briquette chow with water ad libitum and were maintained in standard plastic cages (4-5 individuals in each cage) under natural illumination. A pilocarpine-scopolamine epileptic status model (pilocarpine) was performed as described earlier. In a group of 23 rats, pilocarpine was administered i.p. in different doses which ranged from 100 to 400 mg/kg body weight (B/W) for different periods of time; a second group of 17 rats was treated with DP16 prior to pilocarpine administration, wherein the DP16 was injected for 30 min before pilocarpine in the next dose range and its effect was investigated in the ensuing periods.
# (§2) In vivo ECG (Birtcher-Cardio-Tracer, model 375, USA) in three standard leads were recorded under ketamine anesthesia (3.3 mg/ky Imalgene 100, Rhone Merieux, France and 7 mg/kg Rompun, Bayer Leverkusen, Germany, i.m.). […] In the case of constant PP the volume of effluent flow was measured on electron balance (Precisa 1000C-3000D, Switzerland). […] Direct ECG were recorded from ventricular apex (lead 1), auriculum (lead 2) and in-between (lead 3). The coronary vessel's perfusion resistance (CVPR) was calculated in arbitrary units as follows: PP/flow/heart weight. […]
# [7] = tested on: isolated hearts from pilocarpine-treated rats; assay: Perfusion-Hypoxia-Reperfusion isolated Langendorff heart from pilocarpine-treated rats; design: species or system Sprague-Dawley rats; details: treatment prior to pilocarpine; initial and final periods of perfusion
# Procedure: as §1, §2
# [8] = tested on: metrazol induced convulsions and death; assay: Metrazol anticonvulsant test (prevention of convulsions and/or death); assay type: in vivo, mice; details: for ED100: mice, one hour before s.c. metrazol (80 mg/kg), 30 minutes observation, TVA16 i.p.
# Procedure: A test sample of TVA16 was administered i.p. (0.01 to 100 mg/kg) to a group of three mice, one hour before an s.c. dose of metrazol (80 mg/kg). An effective dose was the amount which prevented convulsions (scored 2 points per animal) and/or death (scored 1 point per animal) in the subsequent 30 minutes.
compound,measurement,setting,value
"O=C(O)CN(CC(=O)O)c1ccccc1OCCOc1ccccc1N(CC(=O)O)CC(=O)O [BAPTA, 1,2-bis-(2-aminophenoxy)ethane-N,N,N′,N′-tetraacetic acid]",reducing the intracellular calcium levels,[1],ineffective
CCCCCCCCCCCCCCCC(=O)OCC(COP(=O)([O-])OCC[N+](C)(C)C)OC(=O)CN(CC(=O)O)c1ccccc1OCCOc1ccccc1N(CC(=O)O)CC(=O)O (stereo not drawn) [DP16],decrease of post-ischemic mortality compared with control,[2],250%
same,dose range with dose dependent therapeutic effects,"[3]; FIG. 4, reduction in fatal seizures",10^−8 to 10^−5 mg/kg
same,effect on death and epileptiform manifestations,[3]; administered prior to pilocarpine,prevented death in the animals and decreased epileptiform manifestations
same,estimated therapeutic index (ET),"[3]; pilocarpine 400 mg/kg, rats, 0.5 mg/kg/5×10^−7 mg/kg",1×10^6
same,response to metrazol (myoclonic jerks),[4]; 0.1 μg/kg i.p.,same response to metrazol as control
same,response to metrazol (myoclonic jerks),"[4]; 5 to 300 μg/kg i.p., p<0.001",significant protective effect
same,complete restoration of AV synchronism,rat hearts; 1.0 μg/l in perfusion buffer after AV block establishment,11 out of 16
same,decreased level of AVB and prevented ventricular fibrillation,"rat hearts; 1.0 μg/l, additional cases of the 16 experiments",5 cases
same,efficiency in resolving atrio-ventricular blockade and preventing ventricular fibrillation compared to BAPTA and BAPTA-AM,rat hearts; FIG. 7,much better efficiency
same,full restoration of the sinus rhythm during reperfusion,rat hearts; reperfusion period,11 out of 16
same,percentage of animals exhibiting abnormal level of SGOT and LDH activity,[5]; 0.01 μg/kg i.p.,substantially decreased
same,mortality,"[5]; 0.01 μg/kg i.p. 30 and 180 minutes after ISO, control 7 out of 41",2 out of 30
same,"pathological displacement of the ST-segment, share of ECG",[5]; 24 hours following ISO,28%
same,"pathological displacement of the ST-segment, share of ECG",[5]; 48 hours following ISO,40%
same,ECG alterations in the phase of stabilization,"[6]; 3-14 days after pilocarpine, p<0.01 vs not protected",prevents the appearance of ECG alterations
same,normalized electrical activity (ECG) at the acute stage of PSCP,"[6]; DP16 prior to pilocarpine, 24h after pilocarpine",5 out of 7
same,coronary vessel's perfusion resistance (CVPR) regulation,[7],prevents damage of CVPR regulation
C[C@]12N[C@H](Cc3ccccc31)c1ccccc12 [MK-801],ED100,"[8]; Mus musculus, read-out: ED100",0.5 mg/kg
CCCCCCCCCCCCCCCC(=O)OCC(COP(=O)([O-])OCC[N+](C)(C)C)OC(=O)C(CCC)CCC (stereo not drawn) [TVA16],dose response curve compared to valproic acid itself,"[8]; FIG. 8, doses as mg of valproic acid per kg body weight",improvement
same,potency relative to sodium valproate,[8]; from Table 1,more than 500 ×
same,ED100,[8],20 mg/kg
CN1C(=O)CN=C(c2ccccc2)c2cc(Cl)ccc21 [diazepam],ED100,"[8]; Mus musculus, read-out: ED100",2.5 mg/kg
CCC1(c2ccccc2)CCC(=O)NC1=O (stereo not drawn) [glutethimide],ED100,"[8]; Mus musculus, read-out: ED100",150 mg/kg
CCCC(C)(COC(N)=O)COC(N)=O [meprobamate],ED100,"[8]; Mus musculus, read-out: ED100",200 mg/kg
CCC1(c2ccccc2)C(=O)NC(=O)NC1=O [phenobarbital],ED100,"[8]; Mus musculus, read-out: ED100",50 mg/kg
"CC[C@@H]1C(=O)OC[C@@H]1Cc1cncn1C [pilocarpine, reference compound]",LD100 (fatal general tonic-clonic convulsions),[3]; rats,400 mg/kg
